The species named for data set [1] is Mus musculus.
Description: Mydriatic effect in iv dosed NMRI albino mouse assessed as concentration required to increase pupil diameter by 200%
A short description of the next data set: in vivo. Conditions: NMRI albino, mouse, iv.
The species entered for data set [2] is Mus musculus. In words: animal or person. As to conditions: NMRI, Hypothalamus, ip.
The species named for data set [3] is Mus musculus. The data set is described as follows: animal or person. As to conditions: NMRI, Hypothalamus, ip. The source holds these as a separate data set.
Data set [4] is filed under the species Mus musculus. In words: animal or person. Conditions: NMRI, Hypothalamus, ip. The source holds these as a separate data set.
For data set [5], the species on record is Mus musculus. The data set is described as follows: animal or person. As to conditions: NMRI, ip.
The test system of data set [6] is Mus musculus. In words: Antidepressant activity in NMRI albino mouse assessed as increase in locomotion at 20 mg/kg, ip after 2 hrs relative to vehicle-treated control. The format is functional, organism-based. The arrangement: dose 20 mg/kg.
In data set [7] the test system is Mus musculus. In words: Antidepressant activity in NMRI albino mouse assessed as hyperactivity by measuring motor excitation at 20 mg/kg, ip after 2 hrs relative to vehicle-treated control. Also noted: dose 20 mg/kg. It is filed as functional, organism-based.
The test system of data set [8] is Mus musculus. In words: Antidepressant activity in NMRI albino mouse assessed as hyperactivity by measuring irritability at 20 mg/kg, ip after 2 hrs relative to vehicle-treated control. The format is functional, organism-based. The arrangement: dose 20 mg/kg.
Data set [9] concerns Mus musculus. The data set is described as follows: Antidepressant activity in NMRI albino mouse assessed as hyperactivity by measuring sniffing at 20 mg/kg, ip after 2 hrs relative to vehicle-treated control. It is filed as functional, organism-based. Also noted: dose 20 mg/kg.
Data set [10] relates to Mus musculus. In words: Antidepressant activity in NMRI albino mouse assessed as hyperactivity by measuring tremor at 20 mg/kg, ip after 2 hrs relative to vehicle-treated control. The format is functional, organism-based. Also noted: dose 20 mg/kg.
Data set [11] relates to Mus musculus. The data set is described as follows: Antidepressant activity in NMRI albino mouse assessed as hyperactivity by measuring rearing at 20 mg/kg, ip after 2 hrs relative to vehicle-treated control. It is filed as functional, organism-based. The arrangement: dose 20 mg/kg.
The test system of data set [12] is Mus musculus. The data set is described as follows: Antidepressant activity in NMRI albino mouse assessed as hyperactivity by measuring circling of head at 20 mg/kg, ip after 2 hrs relative to vehicle-treated control. The arrangement: dose 20 mg/kg. The format is functional, organism-based.
For data set [13], the system named is Mus musculus. The data set is described as follows: Antidepressant activity in NMRI albino mouse assessed as hyperactivity by measuring repetitive movements of head at 20 mg/kg, ip after 2 hrs relative to vehicle-treated control. The arrangement: dose 20 mg/kg. The format is functional, organism-based.
The test system of data set [14] is Mus musculus. The data set is described as follows: Induction of hyperactivity in NMRI albino mouse at 20 mg/kg, ip in presence of pimozide. The arrangement: dose 20 mg/kg. The format is functional, organism-based.
The subject of data set [15] is Mus musculus. The data set is described as follows: Induction of hyperactivity in NMRI albino mouse at 20 mg/kg, ip in presence of phenoxybenzamine. The format is functional, organism-based. Also noted: dose 20 mg/kg.
In data set [16] the test system is Mus musculus. The data set is described as follows: Induction of hyperactivity in NMRI albino mouse at 20 mg/kg, ip in presence of methergoline. It is filed as functional, organism-based. Also noted: dose 20 mg/kg.
Data set [17] concerns Mus musculus. The data set is described as follows: Induction of hyperactivity in NMRI albino mouse at 20 mg/kg, ip in presence of reserpine. The format is functional, organism-based. The arrangement: dose 20 mg/kg.
The subject of data set [18] is Mus musculus. The data set is described as follows: Induction of hyperactivity in NMRI albino mouse at 20 mg/kg, ip in presence of alpha-methyltyrosine. The format is functional, organism-based. The arrangement: dose 20 mg/kg.
Data set [19] has as its target Sodium-dependent noradrenaline transporter (Mus musculus, UniProt O55192).
Description: Inhibition of noradrenaline transporter in NMRI albino mouse brain assessed as [3H]NA accumulation in hypothalamus after 5 mins
The target of data set [20] is Sodium-dependent serotonin transporter (Mus musculus, UniProt Q60857).
Chain of Sodium-dependent serotonin transporter (Q60857 whole entry): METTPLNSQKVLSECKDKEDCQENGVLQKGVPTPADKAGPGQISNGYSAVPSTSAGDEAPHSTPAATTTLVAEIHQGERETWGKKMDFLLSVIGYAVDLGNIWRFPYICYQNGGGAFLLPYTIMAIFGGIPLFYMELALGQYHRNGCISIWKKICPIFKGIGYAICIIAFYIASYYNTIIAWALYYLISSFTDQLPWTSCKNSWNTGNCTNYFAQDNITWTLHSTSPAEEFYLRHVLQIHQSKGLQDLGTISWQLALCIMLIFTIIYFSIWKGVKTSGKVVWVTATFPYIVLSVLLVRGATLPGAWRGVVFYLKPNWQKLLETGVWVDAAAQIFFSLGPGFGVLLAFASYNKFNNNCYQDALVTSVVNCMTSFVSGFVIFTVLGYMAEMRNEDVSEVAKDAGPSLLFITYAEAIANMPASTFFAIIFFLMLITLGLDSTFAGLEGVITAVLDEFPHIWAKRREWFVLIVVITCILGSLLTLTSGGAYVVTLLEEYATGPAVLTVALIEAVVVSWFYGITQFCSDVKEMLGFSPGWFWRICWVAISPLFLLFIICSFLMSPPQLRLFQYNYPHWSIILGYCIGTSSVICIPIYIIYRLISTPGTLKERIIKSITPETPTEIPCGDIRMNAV

The source made the active and inactive calls. The calls are words filed in the database; no cut-off is given here.

For orientation: LD50 means the dose expected to kill half of the subjects tested. A higher LD50 goes with lower toxicity. As usually defined, the ED50 is the dose that gives a 50% effect, or the effect in half of the subjects. Higher therefore signals a need for a large dose. A word on the IC50: it is the concentration that inhibits the measured activity by half. Higher therefore signals weaker potency.

Chain of Sodium-dependent noradrenaline transporter (O55192 whole entry): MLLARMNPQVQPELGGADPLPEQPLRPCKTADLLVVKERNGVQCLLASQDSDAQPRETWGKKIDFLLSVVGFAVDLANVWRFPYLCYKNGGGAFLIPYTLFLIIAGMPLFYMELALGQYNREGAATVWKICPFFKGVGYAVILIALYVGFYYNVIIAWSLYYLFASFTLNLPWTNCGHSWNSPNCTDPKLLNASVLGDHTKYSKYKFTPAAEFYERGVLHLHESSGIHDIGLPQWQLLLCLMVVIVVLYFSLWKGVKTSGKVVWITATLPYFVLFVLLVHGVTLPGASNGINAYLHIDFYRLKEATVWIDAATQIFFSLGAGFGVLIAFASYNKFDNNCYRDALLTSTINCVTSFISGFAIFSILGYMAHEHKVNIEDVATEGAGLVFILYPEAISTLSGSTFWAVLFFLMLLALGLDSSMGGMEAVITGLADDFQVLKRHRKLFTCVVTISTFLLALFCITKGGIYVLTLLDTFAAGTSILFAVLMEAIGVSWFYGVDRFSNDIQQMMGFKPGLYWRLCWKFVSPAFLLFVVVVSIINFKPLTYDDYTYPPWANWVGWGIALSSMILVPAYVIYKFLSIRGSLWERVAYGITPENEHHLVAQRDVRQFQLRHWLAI
Description for in vivo: Acute toxicity in iv dosed NMRI albino mouse assessed as lethality up to 24 hrs

The compound `CN(C)CCCN1c2ccccc2CCc2ccc(Cl)cc21` [CLOMIPRAMINE] showed a PD200 in the data set listed under Mus musculus [1] of 6 µmol/kg. The LD50 at 24 h in “in vivo” amounted to 142 µmol/kg. Further, the ED50 in the data set filed under Mus musculus [2] is 109 µmol/kg; in the data set listed under Mus musculus [3], 20 µmol/kg; in the data set filed under Mus musculus [4] it was greater than 113 µmol/kg; in the data set filed under Mus musculus [5], 8 µmol/kg.

Regarding `CN(C)C1CC(c2ccccc2)(c2ccccc2)C1.Cl`, the result in the data set on Mus musculus [6], with Mus musculus [7], in the data set with Mus musculus [8], with Mus musculus [9], with Mus musculus [10] and in the data set with Mus musculus [11] was Active. For the same compound, the result with Mus musculus [12], with Mus musculus [13], in the data set with Mus musculus [15], with Mus musculus [16] and with Mus musculus [18] was Active. Further, the result with Mus musculus [14] and in the data set on Mus musculus [17] was inactive. Further, the IC50 in data set [19] turned out to be 0.8 µM; in data set [20], 0.9 µM. Besides, the PD200 in the data set filed under Mus musculus [1] came to 24 µmol/kg. This compound also displayed an LD50 at 24 h in the data set “in vivo” of 104 µmol/kg. Further, the ED50 in the data set filed under Mus musculus [2] was 32 µmol/kg; in the data set listed under Mus musculus [3], 48 µmol/kg; in the data set listed under Mus musculus [4], 104 µmol/kg; in the data set listed under Mus musculus [5], 17 µmol/kg.

Regarding `CNC1CC(c2ccccc2)(c2ccccc2)C1.Cl`, the outcome in the data set on Mus musculus [6], in the data set with Mus musculus [7], in the data set on Mus musculus [8], in the data set with Mus musculus [9], in the data set with Mus musculus [10] and in the data set on Mus musculus [11] was Active. Moreover, the outcome in the data set with Mus musculus [12] and in the data set with Mus musculus [13] was Active. Further, the IC50 in data set [19] was determined as 0.8 µM; in [20], 3 µM. Besides, in the data set listed under Mus musculus [1], the PD200 was 9 µmol/kg. Besides, the LD50 at 24 h in the data set “in vivo” is 128 µmol/kg. The ED50 in the data set filed under Mus musculus [2] was 31 µmol/kg; in the data set listed under Mus musculus [3], 95 µmol/kg; in the data set listed under Mus musculus [4] it was 91 µmol/kg; in the data set listed under Mus musculus [5], 9 µmol/kg.

Turning to `Cl.NC1CC(c2ccccc2)(c2ccccc2)C1`, the outcome with Mus musculus [6], in the data set on Mus musculus [7], in the data set with Mus musculus [8], in the data set on Mus musculus [9], in the data set on Mus musculus [10] and with Mus musculus [11] was Active. For the same compound, the result in the data set with Mus musculus [12] and in the data set on Mus musculus [13] was Active. Also, the values for the IC50 in data set [19] and in [20] were 2.2 µM and 2.8 µM, respectively. Moreover, the PD200 in the data set listed under Mus musculus [1] was 15 µmol/kg. In “in vivo”, this compound returned an LD50 at 24 h of 192 µmol/kg. Further, the ED50 was 103 µmol/kg in the data set listed under Mus musculus [2], 162 µmol/kg in the data set filed under Mus musculus [3], greater than 154 µmol/kg in the data set listed under Mus musculus [4] and greater than 38 µmol/kg in the data set filed under Mus musculus [5].

Source of the values: ChEMBL document CHEMBL3244106, “Antidepressant agents. 9. 3,3-Diphenylcyclobutylamines, a new class of central stimulants” (J Med Chem, 1978).
